Measured values from patent US20250059214A1, “AMIDE-CONTAINING LONP1 INHIBITOR COMPOUNDS, USES AND METHODS” (Pretzel Therapeutics, Inc., priority 2021, published 2025).

Molecular target: LONP1 (NM_004793.4) (Homo sapiens (Human), UniProt P36776)
Assay: FRET-based assay for LONP1 protease activity using fluorogenic peptide substrate
Format: biochemical
Settings: LONP1 15 nM as monomer, substrate 3 μM, 1 hour at 37° C., 15 min pre-incubation with compound; average of a minimum of two repeats
Protocol: Inhibition of LONP1 protease activity by an inhibitor compound of the disclosure elicits a decrease in the fluorescent signal.
The LONP1-containing mix (10 μL) was incubated with the test compound for 15 min at 37° C. before adding the peptide-containing mix (5 μL). Solutions were dispensed using a small cassette-Multidrop Combi (Thermo Scientific).
Each value is based on an average of a minimum of two repeats.

LONP1 (NM_004793.4), sequence (P36776 68-959): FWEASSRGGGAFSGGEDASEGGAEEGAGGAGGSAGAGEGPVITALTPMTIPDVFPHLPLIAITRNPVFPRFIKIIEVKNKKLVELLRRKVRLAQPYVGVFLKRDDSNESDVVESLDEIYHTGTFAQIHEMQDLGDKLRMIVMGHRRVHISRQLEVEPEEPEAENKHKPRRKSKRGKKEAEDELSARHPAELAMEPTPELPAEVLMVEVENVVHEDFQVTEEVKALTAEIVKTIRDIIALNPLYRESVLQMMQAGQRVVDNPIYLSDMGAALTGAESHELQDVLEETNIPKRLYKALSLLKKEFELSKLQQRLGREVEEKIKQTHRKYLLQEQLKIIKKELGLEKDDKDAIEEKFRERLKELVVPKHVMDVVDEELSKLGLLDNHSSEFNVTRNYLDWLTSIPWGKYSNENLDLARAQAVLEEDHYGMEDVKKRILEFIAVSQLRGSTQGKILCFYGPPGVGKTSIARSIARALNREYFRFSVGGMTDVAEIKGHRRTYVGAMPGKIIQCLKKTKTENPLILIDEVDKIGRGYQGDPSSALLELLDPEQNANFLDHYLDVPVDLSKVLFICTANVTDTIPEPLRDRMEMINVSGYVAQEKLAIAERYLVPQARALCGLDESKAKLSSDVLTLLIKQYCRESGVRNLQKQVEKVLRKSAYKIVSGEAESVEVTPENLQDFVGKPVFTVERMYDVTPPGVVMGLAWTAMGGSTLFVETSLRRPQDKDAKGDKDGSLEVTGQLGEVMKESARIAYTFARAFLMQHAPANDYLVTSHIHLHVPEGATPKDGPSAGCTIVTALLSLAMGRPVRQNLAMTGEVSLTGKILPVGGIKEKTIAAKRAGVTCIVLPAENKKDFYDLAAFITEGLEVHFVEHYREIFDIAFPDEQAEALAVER

Structure (SMILES)	IC50
CC(C)C[C@H](NC(=O)[C@@H](CC(=O)N1CCOCC1)NC(=O)c1cnccn1)B(O)O [Compound 3, ((R)-3-methyl-1-((R)-4-morpholino-4-oxo-2-(pyrazine-2-carboxamido)butanamido)butyl)boronic acid]	50 to 500 nM
Cc1nc(C)c(C(=O)N[C@H](CC(=O)N2CCOCC2)C(=O)N[C@@H](CC(C)C)B(O)O)o1 [Compound 6, ((R)-1-((R)-2-(2,4-dimethyloxazole-5-carboxamido)-4-morpholino-4-oxobutanamido)-3-methylbutyl)boronic acid]	50 to 500 nM
CC[C@H](NC(=O)[C@@H](CC(=O)N1CCOCC1)NC(=O)c1cnccn1)B(O)O [Compound 19, ((R)-1-((R)-4-morpholino-4-oxo-2-(pyrazine-2-carboxamido)butanamido)propyl)boronic acid]	50 to 500 nM
CN(C)C(=O)N[C@H](CC(=O)N1CCOCC1)C(=O)N[C@@H](CCCc1ccccc1)B(O)O [Compound 20]	50 to 500 nM
O=C(N[C@H](CC(=O)N1CCOCC1)C(=O)N[C@@H](CCCc1ccccc1)B(O)O)C1CCOCC1 [Compound 23, ((R)-1-((R)-4-morpholino-4-oxo-2-(tetrahydro-2H-pyran-4-carboxamido)butanamido)-4-phenylbutyl)boronic acid]	< 50 nM
O=C(N[C@@H](CCCc1ccccc1)B(O)O)[C@@H](CC(=O)N1CCOCC1)NS(=O)(=O)c1ccccc1Cl [Compound 30, ((R)-1-((R)-2-((2-chlorophenyl)sulfonamido)-4-morpholino-4-oxobutanamido)-4-phenylbutyl)boronic acid]	50 to 500 nM
O=C(N[C@@H](CCCc1ccccc1)B(O)O)[C@@H](CC(=O)N1CCOCC1)NCc1ccccc1 [Compound 31]	50 to 500 nM
O=C(N[C@H](CC(=O)N1CCOCC1)C(=O)N[C@@H](CCCc1ccccc1)B(O)O)O[C@H]1CCOC1 [Compound 32, ((R)-1-((R)-4-morpholino-4-oxo-2-(((((S)tetrahydrofuran-3-yl)oxy)carbonyl)amino)butanamido)-4-phenylbutyl)boronic acid]	< 50 nM
CC(C)(C)OC(=O)N(Cc1ccccc1)[C@H](CC(=O)N1CCOCC1)C(=O)N[C@@H](CCCc1ccccc1)B(O)O [Compound 34, ((R)-1-((R)-2-(benzyl(tert-butoxycarbonyl)amino)-4-morpholino-4-oxobutanamido)-4-phenylbutyl)boronic acid]	500 to 5000 nM
CC(C)(C)OC(=O)N(CCc1ccccc1)[C@H](CC(=O)N1CCOCC1)C(=O)N[C@@H](CCCc1ccccc1)B(O)O [Compound 41, ((R)-1-((R)-2-((tert-butoxycarbonyl)(phenethyl)amino)-4-morpholino-4-oxobutanamido)-4-phenylbutyl)boronic acid]	500 to 5000 nM
O=C(N[C@@H](CCCc1ccccc1)B(O)O)[C@@H](CC(=O)N1CCOCC1)NC(=O)N1CCCC1 [Compound 42, ((R)-1-((R)-4-morpholino-4-oxo-2-(pyrrolidine-1-carboxamido)butanamido)-4-phenylbutyl)boronic acid]	50 to 500 nM
CNC(=O)N[C@H](CC(=O)N1CCOCC1)C(=O)N[C@@H](CCCc1ccccc1)B(O)O [Compound 43, ((R)-1-((R)-2-(3-methylureido)-4-morpholino-4-oxobutanamido)-4-phenylbutyl)boronic acid]	50 to 500 nM
O=C(N[C@@H](CCCc1ccccc1)B(O)O)[C@@H](CC(=O)N1CCOCC1)NC(=O)N1CC[C@H](O)C1 [Compound 45, ((R)-1-((R)-2-((S)-3-hydroxypyrrolidine-1-carboxamido)-4-morpholino-4-oxobutanamido)-4-phenylbutyl)boronic acid]	50 to 500 nM
O=C(N[C@H](CC(=O)N1CCOCC1)C(=O)N[C@H]1CCOB1O)c1cnccn1 [Compound 47, N—((R)-1-(((R)-2-hydroxy-1,2-oxaborolan-3-yl)amino)-4-morpholino-1,4-dioxobutan-2-yl)pyrazine-2-carboxamide]	> 5000 nM
O=C(N[C@H](CC(=O)N1CCOCC1)C(=O)N[C@@H](CCCc1ccccc1)B(O)O)[C@@H]1CCCCO1 [Compound 49, ((R)-1-((R)-4-morpholino-4-oxo-2-((S)-tetrahydro-2H-pyran-2-carboxamido)butanamido)-4-phenylbutyl)boronic acid]	50 to 500 nM

The next lines start with the values.

IC50	Structure (SMILES)
50 to 500 nM	O=C(N[C@H](CC(=O)N1CCOCC1)C(=O)N[C@@H](CCc1ccccc1)B(O)O)c1cnccn1 [Compound 4, ((R)-1-((R)-4-morpholino-4-oxo-2-(pyrazine-2-carboxamido)butanamido)-3-phenylpropyl)boronic acid]
50 to 500 nM	CCCC[C@H](NC(=O)[C@@H](CC(=O)N1CCOCC1)NC(=O)c1cnccn1)B(O)O [Compound 5, ((R)-1-((R)-4-morpholino-4-oxo-2-(pyrazine-2-carboxamido)butanamido)pentyl)boronic acid]
50 to 500 nM	CC(=O)N[C@H](CC(=O)N1CCOCC1)C(=O)N[C@@H](CCCc1ccccc1)B(O)O [Compound 11]
50 to 500 nM	CCC[C@H](NC(=O)[C@@H](CC(=O)N1CCOCC1)NC(=O)c1cnccn1)B(O)O [Compound 18, ((R)-1-((R)-4-morpholino-4-oxo-2-(pyrazine-2-carboxamido)butanamido)butyl)boronic acid]
< 50 nM	O=C(N[C@H](CC(=O)N1CCOCC1)C(=O)N[C@@H](CCCc1ccccc1)B(O)O)C1CCCCC1 [Compound 22, ((R)-1-((R)-2-(cyclohexanecarboxamido)-4-morpholino-4-oxobutanamido)-4-phenylbutyl)boronic acid]
500 to 5000 nM	O=C(N[C@H](CC(=O)N1CCOCC1)C(=O)N[C@@H](Cc1ccccc1)B(O)O)c1cnccn1 [Compound 28, ((R)-1-((R)-4-morpholino-4-oxo-2-(pyrazine-2-carboxamido)butanamido)-2-phenylethyl) boronic acid]
< 50 nM	O=C(N[C@@H](CCCc1ccccc1)B(O)O)[C@@H](CC(=O)N1CCOCC1)NS(=O)(=O)c1cccc(Cl)c1 [Compound 29, ((R)-1-((R)-2-((3-chlorophenyl)sulfonamido)-4-morpholino-4-oxobutanamido)-4-phenylbutyl)boronic acid]
< 50 nM	O=C(N[C@@H](CCCc1ccccc1)B(O)O)[C@H](CC(=O)N1CCOCC1)NS(=O)(=O)c1ccccc1 [Compound 33, ((R)-1-((S)-4-morpholino-4-oxo-2-(phenylsulfonamido)butanamido)-4-phenylbutyl)boronic acid]
< 50 nM	O=C(N[C@H](CC(=O)N1CCOCC1)C(=O)N[C@@H](CCCc1ccccc1)B(O)O)c1cc(Cl)ccc1Cl [Compound 35, ((R)-1-((R)-2-(2,5-dichlorobenzamido)-4-morpholino-4-oxobutanamido)-4-phenylbutyl)boronic acid]
< 50 nM	O=C(N[C@H](CC(=O)N1CCOCC1)C(=O)N[C@@H](CCCc1ccccc1)B(O)O)O[C@@H]1CCOC1 [Compound 36, ((R)-1-((R)-4-morpholino-4-oxo-2-(((((R)-tetrahydrofuran-3-yl)oxy)carbonyl)amino)butanamido)-4-phenylbutyl)boronic acid]
< 50 nM	O=C(N[C@@H](CCCc1ccccc1)B(O)O)[C@@H](CC(=O)N1CCOCC1)NS(=O)(=O)c1cc(Cl)ccc1Cl [Compound 37, ((R)-1-((R)-2-((2,5-dichlorophenyl)sulfonamido)-4-morpholino-4-oxobutanamido)-4-phenylbutyl)boronic acid]
50 to 500 nM	CC(C)NC(=O)N[C@H](CC(=O)N1CCOCC1)C(=O)N[C@@H](CCCc1ccccc1)B(O)O [Compound 38, ((R)-1-((R)-2-(3-isopropylureido)-4-morpholino-4-oxobutanamido)-4-phenylbutyl)boronic acid]
50 to 500 nM	O=C(N[C@@H](CCCc1ccccc1)B(O)O)[C@@H](CC(=O)N1CCOCC1)NS(=O)(=O)c1cnccn1 [Compound 39, ((R)-1-((R)-4-morpholino-4-oxo-2-(pyrazine-2-sulfonamido)butanamido)-4-phenylbutyl)boronic acid]
50 to 500 nM	O=C(N[C@@H](CCCc1ccccc1)B(O)O)[C@@H](CC(=O)N1CCOCC1)NCCc1ccccc1 [Compound 40, ((R)-1-((R)-4-morpholino-4-oxo-2-(phenethylamino)butanamido)-4-phenylbutyl)boronic acid]
50 to 500 nM	O=C(N[C@@H](CCCc1ccccc1)B(O)O)[C@@H](CC(=O)N1CCOCC1)NC(=O)N1CC[C@@H](O)C1 [Compound 44, ((R)-1-((R)-2-((R)-3-hydroxypyrrolidine-1-carboxamido)-4-morpholino-4-oxobutanamido)-4-phenylbutyl)boronic acid]
50 to 500 nM	O=C(N[C@@H](CCCc1ccccc1)B(O)O)[C@@H](CC(=O)N1CCOCC1)Nc1ccccc1 [Compound 46]
50 to 500 nM	O=C(N[C@@H](CCCc1ccccc1)B(O)O)[C@@H](CC(=O)N1CCOCC1)NC(=O)[C@H]1CCCCO1 [Compound 48, ((R)-1-((R)-4-morpholino-4-oxo-2-((R)-tetrahydro-2H-pyran-2-carboxamido)butanamido)-4-phenylbutyl)boronic acid]
